Experimental data from patent US10793580B2, “Substituted pyrazoloazepin-8-ones and their use as phosphodiesterase inhibitors” (LEO Pharma A/S, priority 2016, dated 2020).
Where two headings read alike, the source gives them in different places.

Target: human PDE4D catalytic domain (Homo sapiens (Human), UniProt Q08499)
Assay: PDE4 Assay (TR-FRET, FAM-cAMP cleavage)
Assay type: biochemical
Settings: read-out: PDE4 IC50 range
How it was run: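 Readout is Tb-to-FAM time-resolved FRET after nanoparticle capture of AMP, the product of cleaving a cAMP/FAM-cAMP mixture by PDE4D catalytic domain (S380-L740) in the presence of titrated compound. Values are IC50 ranges in nM: concentration halving substrate cleavage relative to controls.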

[1] = human PDE4D catalytic domain (UniProt Q08499 [S380-L740]), 50% inhibition of substrate cleavage

Chain of human PDE4D catalytic domain (Q08499 380-740): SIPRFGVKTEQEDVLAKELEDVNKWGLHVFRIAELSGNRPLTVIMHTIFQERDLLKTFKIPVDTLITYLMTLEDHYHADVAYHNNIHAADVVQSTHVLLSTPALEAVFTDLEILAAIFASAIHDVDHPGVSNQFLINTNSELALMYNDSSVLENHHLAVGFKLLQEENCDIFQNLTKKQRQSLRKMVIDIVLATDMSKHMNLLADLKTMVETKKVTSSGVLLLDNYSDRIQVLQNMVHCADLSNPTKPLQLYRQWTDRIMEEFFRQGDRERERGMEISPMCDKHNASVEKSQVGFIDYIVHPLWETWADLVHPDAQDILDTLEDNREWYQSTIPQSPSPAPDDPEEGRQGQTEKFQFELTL

CCn1nc(CCCCOC(=O)c2ccc(S(=O)(=O)N(C)C)cc2)c2c1C(=O)NCC1(CCOCC1)C2 [Example 132, 4-(1-ethyl-8-oxo-spiro[6,7-dihydro-4H-pyrazolo[3,4-c]azepine-5,4′-tetrahydropyran]-3-yl)butyl 4-(dimethyl-sulfamoyl)benzoate]
IC50 [1]: < 100 nM

CCn1nc(CCCOC(=O)c2cc(OC)ccc2F)c2c1C(=O)NCC1(CCOCC1)C2 [Example 37, 3-(1-ethyl-8-oxo-spiro[6,7-dihydro-4H-pyrazolo[3,4-c]azepine-5,4′-tetrahydropyran]-3-yl)propyl 2-fluoro-5-methoxy-benzoate]
IC50 [1]: < 100 nM

CCn1nc(CCCOC(=O)c2ccc(Cl)cc2OC)c2c1C(=O)NCC1(CCOCC1)C2 [Example 61, 3-(1-ethyl-8-oxo-spiro[6,7-dihydro-4H-pyrazolo[3,4-c]azepine-5,4′-tetrahydropyran]-3-yl)propyl 4-chloro-2-methoxy-benzoate]
IC50 [1]: < 100 nM

CCn1nc(CCCOC(=O)c2cccc(C(F)(F)F)c2C)c2c1C(=O)NCC1(CCOCC1)C2 [Example 68, 3-(1-ethyl-8-oxo-spiro[6,7-dihydro-4H-pyrazolo[3,4-c]azepine-5,4′-tetrahydro-pyran]-3-yl)propyl 2-methyl-3-(trifluoromethyl)benzoate]
IC50 [1]: < 100 nM

CCn1nc(CCCOC(=O)c2ccccc2)c2c1C(=O)NCC1(CCOCC1)C2 [Example 7, 3-(1-ethyl-8-oxo-spiro[6,7-dihydro-4H-pyrazolo[3,4-c]azepine-5,4′-tetrahydropyran]-3-yl)propyl benzoate]
IC50 [1]: < 100 nM

CCn1nc(CCCOC(=O)c2ccc(C(=O)N3CCOCC3)cc2)c2c1C(=O)NCC1(CCOCC1)C2 [Example 109, 3-(1-ethyl-8-oxo-spiro[6,7-dihydro-4H-pyrazolo[3,4-c]azepine-5,4′-tetrahydropyran]-3-yl)propyl 4-(morpholine-4-carbonyl)benzoate]
IC50 [1]: < 100 nM

CCn1nc(CCCOC(=O)c2ccc(C(F)(F)F)c(OC)c2)c2c1C(=O)NCC1(CCOCC1)C2 [Example 83, 3-(1-ethyl-8-oxo-spiro[6,7-dihydro-4H-pyrazolo[3,4-c]azepine-5,4′-tetrahydro-pyran]-3-yl)propyl 3-methoxy-4-(trifluoromethyl)benzoate]
IC50 [1]: < 100 nM

CCn1nc(CC(C)(C)COC(=O)c2cccc(C(=O)N(C)C)c2)c2c1C(=O)NCC1(CCOCC1)C2 [Example 229, [3-(1-ethyl-8-oxo-spiro[6,7-dihydro-4H-pyrazolo[3,4-c]azepine-5,4′-tetrahydro-pyran]-3-yl)-2,2-dimethyl-propyl] 3-(dimethyl-carbamoyl)benzoate]
IC50 [1]: < 100 nM

CCn1nc(CCCCOC(=O)c2ccc(C(=O)NC)cc2)c2c1C(=O)NCC1(CCOCC1)C2 [Example 128, 4-(1-ethyl-8-oxo-spiro[6,7-dihydro-4H-pyrazolo[3,4-c]azepine-5,4′-tetrahydropyran]-3-yl)butyl 4-(methyl-carbamoyl)benzoate]
IC50 [1]: < 100 nM

CCn1nc(CC(C)(C)COC(=O)c2ccc(S(C)(=O)=O)cc2)c2c1C(=O)NCC1(CCOCC1)C2 [Example 202, [3-(1-ethyl-8-oxo-spiro[6,7-dihydro-4H-pyrazolo[3,4-c]azepine-5,4′-tetrahydropyran]-3-yl)-2,2-dimethyl-propyl] 4-methylsulfonylbenzoate]
IC50 [1]: < 100 nM

CCn1nc(CCCOC(=O)c2ccc(C(F)(F)F)cc2F)c2c1C(=O)NCC1(CCOCC1)C2 [Example 70, 3-(1-ethyl-8-oxo-spiro[6,7-dihydro-4H-pyrazolo[3,4-c]azepine-5,4′-tetrahydro-pyran]-3-yl)propyl 2-fluoro-4-(trifluoromethyl)benzoate]
IC50 [1]: < 100 nM

CCn1nc(C[C@@H](C)COC(=O)c2cncs2)c2c1C(=O)NCC1(CCOCC1)C2 [Example 286, [(2R)-3-(1-ethyl-8-oxo-spiro[6,7-dihydro-4H-pyrazolo[3,4-c]azepine-5,4′-tetrahydropyran]-3-yl)-2-methyl-propyl] thiazole-5-carboxylate]
IC50 (Table 16, Examples 277-296): < 100 nM

CCn1nc(CCCOC(=O)c2ccc(S(=O)(=O)N3CCCC3)cc2)c2c1C(=O)NCC1(CCOCC1)C2 [Example 96, 3-(1-ethyl-8-oxo-spiro[6,7-dihydro-4H-pyrazolo[3,4-c]azepine-5,4′-tetrahydro-pyran]-3-yl)propyl 4-pyrro-lidin-1-ylsulfonylbenzoate]
IC50 [1]: < 100 nM

CCn1nc(CCCOC(=O)c2cccc(S(=O)(=O)N3CCN(C(C)=O)CC3)c2)c2c1C(=O)NCC1(CCOCC1)C2 [Example 101, 3-(1-ethyl-8-oxo-spiro[6,7-dihydro-4H-pyrazolo[3,4-c]azepine-5,4′-tetrahydropyran]-3-yl)propyl 3-(4-acetylpiperazin-1-yl)sulfonylbenzoate]
IC50 [1]: < 100 nM

CCn1nc(C[C@@H](C)COC(=O)c2cccc(F)c2)c2c1C(=O)NCC1(CCOCC1)C2 [Example 143, [(2R)-3-(1-ethyl-8-oxo-spiro[6,7-dihydro-4H-pyrazolo[3,4-c]azepine-5,4′-tetrahydropyran]-3-yl)-2-methyl-propyl] 3-fluorobenzoate]
IC50 [1]: < 100 nM

CCn1nc(CCCOC(=O)c2ccc(Cl)cc2C)c2c1C(=O)NCC1(CCOCC1)C2 [Example 43, 3-(1-ethyl-8-oxo-spiro[6,7-dihydro-4H-pyrazolo[3,4-c]azepine-5,4′-tetrahydropyran]-3-yl)propyl 4-chloro-2-methyl-benzoate]
IC50 [1]: < 100 nM

CCn1nc(CC(C)(C)COC(=O)c2cccc(C(=O)NC)c2)c2c1C(=O)NCC1(CCOCC1)C2 [Example 228, [3-(1-ethyl-8-oxo-spiro[6,7-dihydro-4H-pyrazolo[3,4-c]azepine-5,4′-tetrahydropyran]-3-yl)-2,2-dimethyl-propyl] 3-(methylcarbamoyl)benzoate]
IC50 [1]: < 100 nM

CCn1nc(C[C@@H](C)COC(=O)C2CCN(C(=O)N(C)C)CC2)c2c1C(=O)NCC1(CCOCC1)C2 [Example 296, [(2R)-3-(1-ethyl-8-oxo-spiro[6,7-dihydro-4H-pyrazolo[3,4-c]azepine-5,4′-tetrahydropyran]-3-yl)-2-methyl-propyl] 1-(dimethylcarbamoyl)piperidine-4-carboxylate]
IC50 (Table 16, Examples 277-296): < 100 nM

CCn1nc(CCCOC(=O)c2cc(F)cc(C#N)c2)c2c1C(=O)NCC1(CCOCC1)C2 [Example 29, 3-(1-ethyl-8-oxo-spiro[6,7-dihydro-4H-pyrazolo[3,4-c]azepine-5,4′-tetrahydropyran]-3-yl)propyl 3-cyano-5-fluoro-benzoate]
IC50 [1]: < 100 nM

CCn1nc(CCCOC(=O)c2ccc(C(=O)N3CCN(C(C)=O)CC3)cc2)c2c1C(=O)NCC1(CCOCC1)C2 [Example 111, 3-(1-ethyl-8-oxo-spiro[6,7-dihydro-4H-pyrazolo[3,4-c]azepine-5,4′-tetrahydropyran]-3-yl)propyl 4-(4-acetylpiperazine-1-carbonyl)benzoate]
IC50 [1]: < 100 nM

CCn1nc(C[C@@H](C)COC(=O)c2ccc(S(=O)(=O)NC)cc2)c2c1C(=O)NCC1(CCOCC1)C2 [Example 158, [(2R)-3-(1-ethyl-8-oxo-spiro[6,7-dihydro-4H-pyrazolo[3,4-c]azepine-5,4′-tetrahydropyran]-3-yl)-2-methyl-propyl] 4-(methylsulfamoyl)benzoate]
IC50 [1]: < 100 nM

CCn1nc(C[C@@H](C)COC(=O)c2ccc(C(=O)NC)cc2)c2c1C(=O)NCC1(CCOCC1)C2 [Example 170, [(2R)-3-(1-ethyl-8-oxo-spiro[6,7-dihydro-4H-pyrazolo[3,4-c]azepine-5,4′-tetrahydropyran]-3-yl)-2-methyl-propyl] 4-(methylcarbamoyl)benzoate]
IC50 [1]: < 100 nM

CCn1nc(CCCOC(=O)c2csc(C)n2)c2c1C(=O)NCC1(CCOCC1)C2 [Example 254, 3-(1-ethyl-8-oxo-spiro[6,7-dihydro-4H-pyrazolo[3,4-c]azepine-5,4′-tetrahydropyran]-3-yl)propyl 2-methylthiazole-4-carboxylate]
IC50 [1]: < 100 nM

CCn1nc(CC(C)(C)COC(=O)c2cccc(S(=O)(=O)N3CCOCC3)c2)c2c1C(=O)NCC1(CCOCC1)C2 [Example 212, [3-(1-ethyl-8-oxo-spiro[6,7-dihydro-4H-pyrazolo[3,4-c]azepine-5,4′-tetrahydropyran]-3-yl)-2,2-dimethyl-propyl] 3-morpholinosulfonylbenzoate]
IC50 [1]: < 100 nM

CCn1nc(CCCOC(=O)c2cc(F)ccc2Cl)c2c1C(=O)NCC1(CCOCC1)C2 [Example 46, 3-(1-ethyl-8-oxo-spiro[6,7-dihydro-4H-pyrazolo[3,4-c]azepine-5,4′-tetrahydropyran]-3-yl)propyl 2-chloro-5-fluoro-benzoate]
IC50 [1]: < 100 nM

CCn1nc(C[C@@H](C)COC(=O)C2CCOCC2)c2c1C(=O)NCC1(CCOCC1)C2 [Example 287, [(2R)-3-(1-ethyl-8-oxo-spiro[6,7-dihydro-4H-pyrazolo[3,4-c]azepine-5,4′-tetrahydropyran]-3-yl)-2-methyl-propyl] tetrahydropyran-4-carboxylate]
IC50 (Table 16, Examples 277-296): < 100 nM

CCc1nc(C(=O)OCCCc2nn(CC)c3c2CC2(CCOCC2)CNC3=O)cs1 [Example 260, 3-(1-ethyl-8-oxo-spiro[6,7-dihydro-4H-pyrazolo[3,4-c]azepine-5,4′-tetrahydropyran]-3-yl)propyl 2-ethylthiazole-4-carboxylate]
IC50 [1]: < 100 nM

CCn1nc(CC(C)(C)COC(=O)CCOC)c2c1C(=O)NCC1(CCOCC1)C2 [Example 186, [3-(1-ethyl-8-oxo-spiro[6,7-dihydro-4H-pyrazolo[3,4-c]azepine-5,4′-tetrahydropyran]-3-yl)-2,2-dimethyl-propyl] 3-methoxypropanoate]
IC50 [1]: < 100 nM

CCn1nc(C[C@@H](C)COC(=O)c2cnc(C)nc2)c2c1C(=O)NCC1(CCOCC1)C2 [Example 288, [(2R)-3-(1-ethyl-8-oxo-spiro[6,7-dihydro-4H-pyrazolo[3,4-c]azepine-5,4′-tetrahydropyran]-3-yl)-2-methyl-propyl] 2-methylpyrimidine-5-carboxylate]
IC50 (Table 16, Examples 277-296): < 100 nM
